pEC50: −log10 of the molar value.
Assays:
[1] = human plasma
in vitro = details: human, plasma, pH 7.5, half-life, 50% pooled human plasma in PBS
cancer cells = details: 2 hour exposure; cited from earlier work
B30.2 domain of BTN3A1 = details: ITC; cited from earlier work
Vγ9Vδ2 T cells = details: 72 hour compound exposure, PBMCs; cited from earlier work

Row | SMILES | hydrolysis after two hours [1] | half-life (in vitro) [min] | pEC50 (cancer cells) | binding to the B30.2 domain of BTN3A1 (B30.2 domain of BTN3A1) | pEC50 (Vγ9Vδ2 T cells)
1 | C/C(=C\CCP(=O)(OCOC(=O)C(C)(C)C)OCOC(=O)C(C)(C)C)CO [Compound 2] | more than 95% | ~8 | 8.92 |  | 
2 | C/C(=C\CCP(=O)([O-])[O-])CO.[Na+].[Na+] [Compound 10] |  |  |  | does bind | 5.40
3 | COP(=O)(CC/C=C(\C)CO)OC [Compound 11] |  |  |  |  | < 5.00
4 | C/C(=C\COP(=O)(O)OP(=O)(O)O)CO [HMBPP, (E)-4-hydroxy-3-methyl-but-2-enyl diphosphate] |  |  | 7.72 |  | 

From PMC6703555 (Journal of medicinal chemistry, 2018)
